This note sets out measurements from paper PMC10655782 (Alzheimer's & Dementia : Translational Research & Clinical …, 2023).

The subject of test [1] is BV2 cells. The experiment in a line: High‐content imaging assay. The class given is cell-based, mouse.
For test [2], the target named is T1, HiBit‐SHIP1 (full‐length human SHIP1) (Homo sapiens, UniProt Q92835).
T1 sequence (Q92835 1-1189): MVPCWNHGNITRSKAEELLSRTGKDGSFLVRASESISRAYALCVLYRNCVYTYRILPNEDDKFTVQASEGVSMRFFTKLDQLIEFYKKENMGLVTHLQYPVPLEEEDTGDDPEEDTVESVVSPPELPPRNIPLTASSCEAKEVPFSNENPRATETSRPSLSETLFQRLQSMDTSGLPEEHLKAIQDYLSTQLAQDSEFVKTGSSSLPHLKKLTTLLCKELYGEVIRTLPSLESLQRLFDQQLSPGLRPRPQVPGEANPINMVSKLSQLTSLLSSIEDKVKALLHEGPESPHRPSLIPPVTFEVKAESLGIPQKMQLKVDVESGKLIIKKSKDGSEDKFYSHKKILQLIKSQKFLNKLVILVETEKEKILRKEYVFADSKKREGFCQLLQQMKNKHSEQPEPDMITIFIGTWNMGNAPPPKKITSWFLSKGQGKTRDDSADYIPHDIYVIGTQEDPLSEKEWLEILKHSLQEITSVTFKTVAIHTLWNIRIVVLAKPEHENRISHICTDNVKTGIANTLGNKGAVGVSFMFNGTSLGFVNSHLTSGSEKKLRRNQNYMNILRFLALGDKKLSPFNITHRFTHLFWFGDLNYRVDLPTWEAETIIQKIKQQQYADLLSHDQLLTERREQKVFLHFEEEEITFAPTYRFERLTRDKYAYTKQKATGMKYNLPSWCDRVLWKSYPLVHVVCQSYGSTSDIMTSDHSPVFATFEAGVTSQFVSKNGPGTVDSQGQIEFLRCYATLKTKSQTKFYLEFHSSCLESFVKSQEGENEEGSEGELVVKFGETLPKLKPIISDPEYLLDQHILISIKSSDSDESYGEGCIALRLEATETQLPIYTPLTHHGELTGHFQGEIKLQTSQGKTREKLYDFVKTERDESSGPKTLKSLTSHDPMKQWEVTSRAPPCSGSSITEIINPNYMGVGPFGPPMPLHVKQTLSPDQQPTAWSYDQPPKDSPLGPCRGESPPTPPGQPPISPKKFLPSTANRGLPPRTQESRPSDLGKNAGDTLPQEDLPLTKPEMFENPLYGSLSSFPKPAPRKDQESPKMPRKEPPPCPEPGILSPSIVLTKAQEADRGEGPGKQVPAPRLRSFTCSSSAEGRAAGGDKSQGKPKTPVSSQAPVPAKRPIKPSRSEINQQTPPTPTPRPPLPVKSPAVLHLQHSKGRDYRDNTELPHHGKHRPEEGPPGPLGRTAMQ
Put plainly: SplitLuc cellular thermal shift assay. The class given is cell-based. Conditions: for CETSA % (percent luminescence at the highest dose): highest dose (100 μM); for CETSA TE (target engagement): significant if difference from control at highest dose >3SD.

The target of test [3] is T2, human SHIP1 Ptase‐C2 (Homo sapiens, UniProt Q92835).
T2 sequence (Q92835 395-898): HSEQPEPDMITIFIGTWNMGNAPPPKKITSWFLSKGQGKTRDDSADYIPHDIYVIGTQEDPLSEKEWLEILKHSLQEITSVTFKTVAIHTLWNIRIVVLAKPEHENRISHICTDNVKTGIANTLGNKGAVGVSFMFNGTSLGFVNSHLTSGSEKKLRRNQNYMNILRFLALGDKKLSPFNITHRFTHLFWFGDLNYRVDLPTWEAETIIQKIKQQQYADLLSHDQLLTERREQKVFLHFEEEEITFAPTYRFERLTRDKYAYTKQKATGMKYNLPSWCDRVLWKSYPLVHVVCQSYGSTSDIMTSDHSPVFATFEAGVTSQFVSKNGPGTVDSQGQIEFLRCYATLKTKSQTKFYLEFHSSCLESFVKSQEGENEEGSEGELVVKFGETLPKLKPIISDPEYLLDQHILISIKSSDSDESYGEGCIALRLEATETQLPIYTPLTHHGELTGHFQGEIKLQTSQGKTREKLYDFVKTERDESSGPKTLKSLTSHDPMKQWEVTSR
The experiment in a line: Malachite green enzyme assay, hSHIP1^395‐898 Ptase‐C2, substrate PtdIns. The class given is biochemical.

Test [4] concerns HMC3 cells. The experiment in a line: High‐content imaging assay. The class given is cell-based.
Test [5] deals with primary mouse microglia. The experiment in a line: High‐content imaging phagocytosis assay in primary mouse microglia. The class given is cell-based.

By AC50 is commonly meant the midpoint of the concentration-response curve, whichever way the signal moves. Broadly, the IC50 is the concentration that gives 50% inhibition. Lower therefore signals higher potency. `CC(=O)C1=C(C)Nc2sc(C(=O)c3ccc(Cl)c(Cl)c3)c(N)c2C1c1cccnc1` (stereo not shown) [Compound 2]: the “cellular phenotype in high‐content imaging (in words)” value in test [1] is “inactive”. For the same compound, in test [2], the AC50 was determined as 46 ± 5 µM, the “CETSA % (percent luminescence at the highest dose)” value is on record as 30 ± 7 (2) % and the “CETSA TE (target engagement)” value is given as “Yes”. The compound further displayed a 50% inhibitory concentration (IC50) in test [3] of 18.6 µM. Also, the “cellular phenotype in high‐content imaging (in words)” value in test [4] was “inactive”.
`CC(C)c1ccc(C2C(C#N)=C3N=C(N)c4ccccc4N3C3=C2C(=O)CCC3)cc1` (stereo not shown) [Compound 3]: in test [2], the AC50 was found to be 173 µM, the “CETSA % (percent luminescence at the highest dose)” value is reported as 63 ± 12 (2) % and the “CETSA TE (target engagement)” value is recorded as “Yes”. The same compound yielded an IC50 in test [3] of 26.8 µM.
In the case of `CC(C)CCC[C@@H](C)[C@H]1CC[C@H]2[C@@H]3CCC4C[C@H](N)CC[C@]4(C)[C@H]3CC[C@]12C` (stereo partly drawn) [Compound 13, 3α‐aminocholestane, reference compound], in test [3], the half-inhibitory concentration (IC50) came out at 201 µM.
One may read the EC50 as the concentration needed to bring the measured effect to its halfway point. On to `Clc1ccc(COc2cncc(-c3cnn(C4CCNCC4)c3)c2)c(Cl)c1` [Compound 23, 3‐((2,4‐Dichlorobenzyl)oxy)‐5‐(1‐(piperidin‐4‐yl)‐1H‐pyrazol‐4‐yl)pyridine, reference compound], for which, in test [5] (Mus musculus, Microglia, read-out: phagocytosis EC50), the EC50 is 0.54 µM. The same compound registered an increased phagocytosis in test [5] (primary mouse microglia from neonate mice) of 1.5 fold. Further, in test [2], the “CETSA % (percent luminescence at the highest dose)” value is recorded as 27 ± 15 (3) % and the “CETSA TE (target engagement)” value is “Yes”. Besides, in test [3], half-maximal inhibition (IC50) required 251 µM.
